Measured values taken from patent publication US9889115B2, “Fitness assay and associated methods” (priority 1998, dated 2018).

Columns and labels:
wild-type HIV = assay: wild-type antiretroviral activity (Table 4); details: Human immunodeficiency virus 1, read-out: ID50
wild-type HIV protease = wild-type HIV protease (Human immunodeficiency virus type 1 group M subtype B, UniProt P04585); assay: biochemical
HIV-1LAI = assay: PHA-PBMC assay, p24 Gag protein production; assay type: cell-based; details: Human immunodeficiency virus 1; HIV-1LAI, SI; PHA-PBMC, p24 (Table 3)
[1] = system: multidrug-resistant HIV-1 clinical isolate, patient 31; assay: microbe, parasite or virus in culture; assay type: cell-based; details: Human immunodeficiency virus 1; Patient Isolate 31
Experimental: (§1) The mutant multidrug-resistant HIV-1 strains corresponding to each patient, numbered 9-35, were genetically analyzed in terms of the nucleic acid sequences of the protease (PR) and a portion of the reverse transcriptase (RT) genes from which mutations in these enzymes were determined. The mutations in the protease and reverse transcriptase of the multidrug-resistant viruses isolated from each patient are shown below in Table 9b.

[2] = system: multidrug-resistant HIV-1 clinical isolate, patient 30; assay: microbe, parasite or virus in culture; assay type: cell-based; details: Human immunodeficiency virus 1; Patient Isolate 30
Experimental: as §1

[3] = system: multidrug-resistant HIV-1 clinical isolate, patient 18; assay: microbe, parasite or virus in culture; assay type: cell-based; details: Human immunodeficiency virus 1; Patient Isolate 18
Experimental: as §1

[4] = system: multidrug-resistant HIV-1 clinical isolate, patient 32; assay: microbe, parasite or virus in culture; assay type: cell-based; details: Human immunodeficiency virus 1; Patient Isolate 32
Experimental: as §1

[5] = system: multidrug-resistant HIV-1 clinical isolate, patient 16; assay: microbe, parasite or virus in culture; assay type: cell-based; details: Human immunodeficiency virus 1; Patient Isolate 16
Experimental: as §1

[6] = system: multidrug-resistant HIV-1 clinical isolate, patient 33; assay: microbe, parasite or virus in culture; assay type: cell-based; details: Human immunodeficiency virus 1; Patient Isolate 33
Experimental: as §1

[7] = system: multidrug-resistant HIV-1 clinical isolate, patient 15; assay: microbe, parasite or virus in culture; assay type: cell-based; details: Human immunodeficiency virus 1; Patient Isolate 15
Experimental: as §1

[8] = system: multidrug-resistant HIV-1 clinical isolate, patient 23; assay: microbe, parasite or virus in culture; assay type: cell-based; details: Human immunodeficiency virus 1; Patient Isolate 23
Experimental: as §1

[9] = system: multidrug-resistant HIV-1 clinical isolate, patient 12; assay: microbe, parasite or virus in culture; assay type: cell-based; details: Human immunodeficiency virus 1; Patient Isolate 12
Experimental: as §1

[10] = system: multidrug-resistant HIV-1 clinical isolate, patient 14; assay: microbe, parasite or virus in culture; assay type: cell-based; details: Human immunodeficiency virus 1; Patient Isolate 14
Experimental: as §1

[11] = system: multidrug-resistant HIV-1 clinical isolate, patient 9; assay: microbe, parasite or virus in culture; assay type: cell-based; details: Human immunodeficiency virus 1; Patient Isolate 9
Experimental: as §1

[12] = system: multidrug-resistant HIV-1 clinical isolate, patient 17; assay: microbe, parasite or virus in culture; assay type: cell-based; details: Human immunodeficiency virus 1; Patient Isolate 17
Experimental: as §1

[13] = system: multidrug-resistant HIV-1 clinical isolate, patient 11; assay: microbe, parasite or virus in culture; assay type: cell-based; details: Human immunodeficiency virus 1; Patient Isolate 11
Experimental: as §1

[14] = system: multidrug-resistant HIV-1 clinical isolate, patient 29; assay: microbe, parasite or virus in culture; assay type: cell-based; details: Human immunodeficiency virus 1; Patient Isolate 29
Experimental: as §1

[15] = system: multidrug-resistant HIV-1 clinical isolate, patient 13; assay: microbe, parasite or virus in culture; assay type: cell-based; details: Human immunodeficiency virus 1; Patient Isolate 13
Experimental: as §1

[16] = system: multidrug-resistant HIV-1 clinical isolate, patient 19; assay: microbe, parasite or virus in culture; assay type: cell-based; details: Human immunodeficiency virus 1; Patient Isolate 19
Experimental: as §1

[17] = system: multidrug-resistant HIV-1 clinical isolate, patient 21; assay: microbe, parasite or virus in culture; assay type: cell-based; details: Human immunodeficiency virus 1; Patient Isolate 21
Experimental: as §1

[18] = system: multidrug-resistant HIV-1 clinical isolate, patient 28; assay: microbe, parasite or virus in culture; assay type: cell-based; details: Human immunodeficiency virus 1; Patient Isolate 28
Experimental: as §1

[19] = system: multidrug-resistant HIV-1 clinical isolate, patient 27; assay: microbe, parasite or virus in culture; assay type: cell-based; details: Human immunodeficiency virus 1; Patient Isolate 27
Experimental: as §1

[20] = system: multidrug-resistant HIV-1 clinical isolate, patient 10; assay: microbe, parasite or virus in culture; assay type: cell-based; details: Human immunodeficiency virus 1; Patient Isolate 10
Experimental: as §1

[21] = system: multidrug-resistant HIV-1 clinical isolate, patient 35; assay: microbe, parasite or virus in culture; assay type: cell-based; details: Human immunodeficiency virus 1; Patient Isolate 35
Experimental: as §1

[22] = system: multidrug-resistant HIV-1 clinical isolate, patient 20; assay: microbe, parasite or virus in culture; assay type: cell-based; details: Human immunodeficiency virus 1; Patient Isolate 20
Experimental: as §1

[23] = system: multidrug-resistant strains of HIV-1; assay: PHA-PBMC p24 assay, panel of eight multidrug-resistant clinical isolates; assay type: cell-based; details: eight multidrug-resistant clinical isolates of Table 3
Experimental: (§2) The patient profiles are shown below in Table 2.
(§3) To determine protease inhibitory activity against multidrug resistant HIV, the IC50's were measured against a panel of clinically isolated mutant HIV isolates.
(§4) All drug sensitivities were performed in triplicate. In order to determine whether the HIV isolates were syncitium inducing (SI) or non-syncitium inducing (NSI), an aliquot of viral stock supernatant, containing 100 TCID50, was cultured with 1×10^5 MT-2 cells in a 12-well plate. Cultures were maintained for four weeks and were examined for syncytium formation twice a week.

HIV-1BAL = assay: PHA-PBMC assay, p24 Gag protein production; assay type: cell-based; details: Human immunodeficiency virus 1; HIV-1BAL, NSI; PHA-PBMC, p24 (Table 3)
wild-type HIV-1 (WT) = assay: IC50 against wild-type HIV-1 (Table 9a); assay type: cell-based; details: Human immunodeficiency virus 1; (WT)
[24] = system: multidrug-resistant HIV-1 clinical isolate, patient 34; assay: IC50 against multidrug-resistant clinical isolates (Table 9a); assay type: cell-based; details: Human immunodeficiency virus 1
Experimental: as §1

[25] = system: multidrug-resistant HIV-1 clinical isolate, patient 22; assay: as above; assay type: cell-based; details: Human immunodeficiency virus 1
Experimental: as §1

[26] = system: multidrug-resistant HIV-1 clinical isolate, patient 5; assay: PHA-PBMC assay, p24 Gag protein production; assay type: cell-based; details: Human immunodeficiency virus 1; Patient/Isolate code 5; PHA-PBMC, p24
Experimental: as §2, §3, §4

[27] = system: multidrug-resistant HIV-1 clinical isolate, patient 2; assay: PHA-PBMC assay, p24 Gag protein production; assay type: cell-based; details: Human immunodeficiency virus 1; Patient/Isolate code 2; PHA-PBMC, p24
Experimental: as §2, §3, §4

[28] = system: multidrug-resistant HIV-1 clinical isolate, patient 7; assay: PHA-PBMC assay, p24 Gag protein production; assay type: cell-based; details: Human immunodeficiency virus 1; Patient/Isolate code 7; PHA-PBMC, p24
Experimental: as §2, §3, §4

[29] = system: multidrug-resistant HIV-1 clinical isolate, patient 8; assay: PHA-PBMC assay, p24 Gag protein production; assay type: cell-based; details: Human immunodeficiency virus 1; Patient/Isolate code 8; PHA-PBMC, p24
Experimental: as §2, §3, §4

HIV-1ERS104pre = assay: PHA-PBMC assay, p24 Gag protein production; assay type: cell-based; details: Human immunodeficiency virus 1; HIV-1ERS104pre, SI; PHA-PBMC, p24
Experimental: as §2, §3, §4

[30] = system: multidrug-resistant HIV-1 clinical isolate, patient 4; assay: PHA-PBMC assay, p24 Gag protein production; assay type: cell-based; details: Human immunodeficiency virus 1; Patient/Isolate code 4; PHA-PBMC, p24
Experimental: as §2, §3, §4

[31] = system: multidrug-resistant HIV-1 clinical isolate, patient 3; assay: PHA-PBMC assay, p24 Gag protein production; assay type: cell-based; details: Human immunodeficiency virus 1; Patient/Isolate code 3; PHA-PBMC, p24
Experimental: as §2, §3, §4

[32] = system: multidrug-resistant HIV-1 clinical isolate, patient 6; assay: PHA-PBMC assay, p24 Gag protein production; assay type: cell-based; details: Human immunodeficiency virus 1; Patient/Isolate code 6; PHA-PBMC, p24
Experimental: as §2, §3, §4

[33] = system: multidrug-resistant HIV-1 clinical isolate, patient 1; assay: PHA-PBMC assay, p24 Gag protein production; assay type: cell-based; details: Human immunodeficiency virus 1; Patient/Isolate code 1; PHA-PBMC, p24
Experimental: as §2, §3, §4

Cc1ccc(S(=O)(=O)N(CC(C)C)CC(O)C(Cc2ccccc2)NC(=O)OC2COC3OCCC23)cc1 (centres unmarked)
IC50 (wild-type HIV): 3.5 nM | Ki (wild-type HIV protease): 1.2 nM

COc1ccc(S(=O)(=O)N(CC(C)C)CC(O)C(Cc2ccccc2)NC(=O)OC2COC3OCCCC23)cc1 (centres unmarked)
IC50 (wild-type HIV): 4.5 nM | Ki (wild-type HIV protease): 2.2 nM

CC(C)c1nc(CN(C)C(=O)N[C@H](C(=O)N[C@@H](Cc2ccccc2)C[C@H](O)[C@H](Cc2ccccc2)NC(=O)OCc2cncs2)C(C)C)cs1 [RTV, Ritonavir]
IC50 (HIV-1LAI): 4.7 nM | IC50 [1]: 850 nM | IC50 [2]: 1030 nM | IC50 [3]: 3020 nM | IC50 [4]: 370 nM | IC50 [5]: 1340 nM | IC50 [6]: 180 nM | IC50 [7]: 1140 nM | IC50 [8]: 1820 nM | IC50 [9]: 2470 nM | IC50 [10]: 40 nM | IC50 [11]: 530 nM | IC50 [12]: 870 nM | IC50 [13]: 10 nM | IC50 [14]: 360 nM | IC50 [15]: 1640 nM | IC50 [16]: 2940 nM | IC50 [17]: 2180 nM | IC50 [18]: 2660 nM | IC50 [19]: 2970 nM | IC50 [20]: 2030 nM | IC50 [21]: 2600 nM | IC50 [22]: 1900 nM | potency against the multidrug-resistant strains (in words) [23]: virtually inactive | IC50 (HIV-1BAL): 18 nM | IC50 (wild-type HIV-1 (WT)): 19 nM | IC50 [24]: 3380 nM | IC50 [25]: 560 nM | IC50 [26]: > 1000 nM | IC50 [27]: > 1000 nM | IC50 [28]: > 1000 nM | IC50 [29]: > 1000 nM | IC50 (HIV-1ERS104pre): 55 nM | IC50 [30]: > 1000 nM | IC50 [31]: > 1000 nM | IC50 [32]: > 1000 nM | IC50 [33]: > 1000 nM
